{"source": "patent US20100267561A1", "about": "“HERBICIDAL PYRIDAZINONE DERIVATIVES” (priority 2007, published 2010)", "assay_type_in_all_cases": "in vivo", "key": {"[1]": {"tested_on": "umbrella sedge (Cyperus difformis)", "assay": "Test B flooded paddy test plant response", "outline": "(§1)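 Rice, umbrella sedge, ducksalad and barnyardgrass at 2-leaf stage; pots flooded to 3 cm, compounds applied into paddy water, depth held throughout. Greenhouse 13 to 15 days, then visual rating vs untreated controls on 0–100 scale (0 no effect, 100 complete control); dash means no test result.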"}, "[2]": {"tested_on": "ducksalad (Heteranthera limosa)", "assay": "Test B flooded paddy test plant response", "outline": "as §1"}, "[3]": {"tested_on": "barnyardgrass (Echinochloa crus-galli)", "assay": "Test B flooded paddy test plant response", "outline": "as §1"}, "rice (Oryza sativa)": {"tested_on": "rice (Oryza sativa)", "assay": "Test B flooded paddy test plant response", "outline": "as §1"}, "[4]": {"tested_on": "winter barley (Hordeum vulgare)", "assay": "Test B postemergence plant response", "settings": "for Plant response rating, Barley: Postemergence, scale 0 to 100, 0 no effect, 100 complete control", "outline": "(§2)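 Postemergence greenhouse test; plants at 2 to 18 cm (1- to 4-leaf stage) given formulated test chemical, held 13 to 15 days, then visually rated against untreated controls on a 0 (no effect) to 100 (complete control) scale; dash means no result.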"}, "[5]": {"tested_on": "chickweed (Stellaria media)", "assay": "Test B postemergence plant response", "settings": "for Plant response rating, Chickweed: Postemergence", "outline": "as §2"}, "[6]": {"tested_on": "windgrass (Apera spica-venti)", "assay": "Test B postemergence plant response", "settings": "for Plant response rating, Windgrass: Postemergence", "outline": "as §2"}, "[7]": {"tested_on": "canarygrass (Phalaris minor)", "assay": "Test B postemergence plant response", "settings": "for Plant response rating, Canarygrass: Postemergence", "outline": "as §2"}, "[8]": {"tested_on": "velvetleaf (Abutilon theophrasti)", "assay": "Test A pre-/postemergence plant response", "outline": "(§3)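 Seeds in loam soil/sand blend treated preemergence by directed soil spray, with simultaneous postemergence spray on 2–10 cm plants at one- to two-leaf stage; compounds in non-phytotoxic solvent with surfactant. Injury visually rated versus untreated controls after about 10 days in greenhouse, 0 (no effect) to 100 (complete control).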"}, "corn (Zea mays)": {"tested_on": "corn (Zea mays)", "assay": "Test A pre-/postemergence plant response", "outline": "as §3"}, "[9]": {"tested_on": "large crabgrass (Digitaria sanguinalis)", "assay": "Test A pre-/postemergence plant response", "outline": "as §3"}, "[10]": {"tested_on": "morningglory (Ipomoea coccinea)", "assay": "Test A pre-/postemergence plant response", "outline": "as §3"}, "[11]": {"tested_on": "giant foxtail (Setaria faberi)", "assay": "Test A pre-/postemergence plant response", "outline": "as §3"}, "[12]": {"tested_on": "pigweed (Amaranthus retroflexus)", "assay": "Test A pre-/postemergence plant response", "outline": "as §3"}, "[13]": {"tested_on": "barnyardgrass (Echinochloa crus-galli)", "assay": "Test A pre-/postemergence plant response", "outline": "as §3"}, "[14]": {"settings": "Flood (flooded paddy test), 62 g ai/ha, scale 0 to 100, 0 no effect, 100 complete control"}, "[15]": {"settings": "Flood (flooded paddy test), 125 g ai/ha, scale 0 to 100, 0 no effect, 100 complete control"}, "[16]": {"settings": "Flood (flooded paddy test), 250 g ai/ha, scale 0 to 100, 0 no effect, 100 complete control"}, "[17]": {"settings": "Flood, 31 g ai/ha, scale 0 to 100"}, "[18]": {"settings": "8 g ai/ha, postemergence, 0-100 scale"}, "[19]": {"settings": "31 g ai/ha, scale 0 to 100, 0 no effect, 100 complete control"}, "[20]": {"settings": "62 g ai/ha, scale 0 to 100, 0 no effect, 100 complete control"}, "[21]": {"settings": "Postemergence, 31 g ai/ha, 0 to 100 scale (0 no effect, 100 complete control)"}, "[22]": {"settings": "Postemergence, 125 g ai/ha, 0 to 100 scale, 0 no effect, 100 complete control"}, "[23]": {"settings": "Preemergence, 31 g ai/ha, 0 to 100 scale, 0 is no effect, 100 is complete control"}, "[24]": {"settings": "Preemergence, 125 g ai/ha, 0 to 100 scale (0 no effect, 100 complete control)"}}}
{"smiles": "Cc1cc(-c2ccc(Cl)cc2)nn1-c1c(OC(=O)C(C)C)cnn(C)c1=O", "note": "[Compound 34]", "values": [{"measurement": "Plant response rating, Sedge, Umbrella", "setting": "[1]; [14]", "value": 0}, {"measurement": "Plant response rating, Sedge, Umbrella", "setting": "[1]; [15]", "value": 0}, {"measurement": "Plant response rating, Sedge, Umbrella", "setting": "[1]; [16]", "value": 0}, {"measurement": "Plant response rating, Sedge, Umbrella", "setting": "[1]; [17]", "value": 0}, {"measurement": "Plant response rating, Ducksalad", "setting": "[2]; [14]", "value": 0}, {"measurement": "Plant response rating, Ducksalad", "setting": "[2]; [15]", "value": 30}, {"measurement": "Plant response rating, Ducksalad", "setting": "[2]; [16]", "value": 40}, {"measurement": "Plant response rating, Ducksalad", "setting": "[2]; [17]", "value": 0}, {"measurement": "Plant response rating, Barnyardgrass", "setting": "[3]; [14]", "value": 50}, {"measurement": "Plant response rating, Barnyardgrass", "setting": "[3]; [15]", "value": 100}, {"measurement": "Plant response rating, Barnyardgrass", "setting": "[3]; [16]", "value": 100}, {"measurement": "Plant response rating, Barnyardgrass", "setting": "[3]; [17]", "value": 40}, {"measurement": "Plant response rating, Rice", "setting": "rice (Oryza sativa); [14]", "value": 40}, {"measurement": "Plant response rating, Rice", "setting": "rice (Oryza sativa); [15]", "value": 70}, {"measurement": "Plant response rating, Rice", "setting": "rice (Oryza sativa); [16]", "value": 80}, {"measurement": "Plant response rating, Rice", "setting": "rice (Oryza sativa); [17]", "value": 0}, {"measurement": "Barley plant response rating", "setting": "[4]; [18]", "value": 0}, {"measurement": "Plant response rating, Barley", "setting": "[4]; 16 g ai/ha", "value": 0}, {"measurement": "Plant response rating, Barley", "setting": "[4]; 31 g ai/ha", "value": 0}, {"measurement": "Plant response rating, Barley", "setting": "[4]; 62 g ai/ha", "value": 15}, {"measurement": "Chickweed plant response rating", "setting": "[5]; [18]", "value": 0}, {"measurement": "Plant response rating, Chickweed", "setting": "[5]; 16 g ai/ha, scale 0 to 100", "value": 0}, {"measurement": "Plant response rating, Chickweed", "setting": "[5]; [19]", "value": 0}, {"measurement": "Plant response rating, Chickweed", "setting": "[5]; [20]", "value": 0}, {"measurement": "Windgrass plant response rating", "setting": "[6]; [18]", "value": 0}, {"measurement": "Plant response rating, Windgrass", "setting": "[6]; 16 g ai/ha, scale 0 to 100", "value": 10}, {"measurement": "Plant response rating, Windgrass", "setting": "[6]; [20]", "value": 80}, {"measurement": "Canarygrass plant response rating", "setting": "[7]; [18]", "value": 10}, {"measurement": "Plant response rating, Canarygrass", "setting": "[7]; 16 g ai/ha, scale 0 to 100", "value": 10}, {"measurement": "Plant response rating, Canarygrass", "setting": "[7]; [19]", "value": 20}, {"measurement": "Plant response rating, Canarygrass", "setting": "[7]; [20]", "value": 20}, {"measurement": "Plant response rating, Velvetleaf", "setting": "[8]; [21]", "value": 0}, {"measurement": "Plant response rating, Velvetleaf", "setting": "[8]; [22]", "value": 0}, {"measurement": "Plant response rating, Velvetleaf", "setting": "[8]; [23]", "value": 0}, {"measurement": "Plant response rating, Velvetleaf", "setting": "[8]; [24]", "value": 0}, {"measurement": "Plant response rating, Corn", "setting": "corn (Zea mays); [21]", "value": 70}, {"measurement": "Plant response rating, Corn", "setting": "corn (Zea mays); [22]", "value": 90}, {"measurement": "Plant response rating, Corn", "setting": "corn (Zea mays); [23]", "value": 20}, {"measurement": "Plant response rating, Corn", "setting": "corn (Zea mays); [24]", "value": 60}, {"measurement": "Plant response rating, Crabgrass, Large", "setting": "[9]; [21]", "value": 70}, {"measurement": "Plant response rating, Crabgrass, Large", "setting": "[9]; [22]", "value": 100}, {"measurement": "Plant response rating, Crabgrass, Large", "setting": "[9]; [23]", "value": 80}, {"measurement": "Plant response rating, Crabgrass, Large", "setting": "[9]; [24]", "value": 90}, {"measurement": "Plant response rating, Morningglory", "setting": "[10]; [21]", "value": 0}, {"measurement": "Plant response rating, Morningglory", "setting": "[10]; [22]", "value": 0}, {"measurement": "Plant response rating, Morningglory", "setting": "[10]; [23]", "value": 0}, {"measurement": "Plant response rating, Morningglory", "setting": "[10]; [24]", "value": 0}, {"measurement": "Plant response rating, Foxtail, Giant", "setting": "[11]; [21]", "value": 90}, {"measurement": "Plant response rating, Foxtail, Giant", "setting": "[11]; [22]", "value": 100}, {"measurement": "Plant response rating, Foxtail, Giant", "setting": "[11]; [23]", "value": 100}, {"measurement": "Plant response rating, Foxtail, Giant", "setting": "[11]; [24]", "value": 100}, {"measurement": "Plant response rating, Pigweed", "setting": "[12]; [21]", "value": 0}, {"measurement": "Plant response rating, Pigweed", "setting": "[12]; [22]", "value": 10}, {"measurement": "Plant response rating, Pigweed", "setting": "[12]; [23]", "value": 0}, {"measurement": "Plant response rating, Pigweed", "setting": "[12]; [24]", "value": 0}, {"measurement": "Plant response rating, Barnyardgrass", "setting": "[13]; [21]", "value": 90}, {"measurement": "Plant response rating, Barnyardgrass", "setting": "[13]; [22]", "value": 100}, {"measurement": "Plant response rating, Barnyardgrass", "setting": "[13]; [23]", "value": 70}, {"measurement": "Plant response rating, Barnyardgrass", "setting": "[13]; [24]", "value": 100}]}
